According to ChEMBL document CHEMBL1949562, “Triterpenes possessing an unprecedented skeleton isolated from hydrolyzate of total saponins from Gynostemma pentaphyllum” (Eur J Med Chem, 2012):

Key:
[1] = Cytotoxicity against human U87 cells after 72 hrs by MTT assay; type: functional, cell-based, U-87MG ATCC; conditions: U-87 MG
[2] = Cytotoxicity against human Hep3B cells after 72 hrs by MTT assay; type: functional, cell-based, Hep 3B2
[3] = test system: A549; assay: Cytotoxicity against human A549 cells after 72 hrs by MTT assay; type: functional, cell-based; conditions: A549, 72 h

SMILES	IC50 [1] [µM]	IC50 [2] [µM]	IC50 [3] [µM]
CC(C)=C[C@H]1C=C([C@H]2CC[C@]3(C)[C@@H]2CC[C@@H]2[C@@]4(C)CC[C@H](O[C@@H]5O[C@H](CO)[C@@H](O)[C@H](O)[C@H]5O)C(C)(C)[C@@H]4CC[C@]23C)C(=O)O1	> 100	> 100	> 100
CC(C)=CCC[C@](C)(O)[C@H]1CC[C@]2(C)[C@@H]1[C@H](O)C[C@@H]1[C@@]3(C)CC[C@H](O)C(C)(C)[C@@H]3CC[C@]12C	36.7	14.7	–
COc1cc([C@@H]2c3cc4c(cc3[C@@H](O[C@@H]3O[C@@H]5CO[C@@H](C)O[C@H]5[C@H](O)[C@H]3O)[C@H]3COC(=O)[C@H]23)OCO4)cc(OC)c1O [ETOPOSIDE]	12.4	6.7	23.8
CC(C)=C1CC=C([C@H]2CC[C@]3(C)[C@@H]2CC[C@@H]2C4=C(CC[C@]23C)C(C)(C)[C@@H]2CC[C@H]4O2)C1=O [GYPENSAPOGENIN A]	> 100	44.4	71.2
CC(C)=C1CC([C@H]2CC[C@]3(C)[C@@H]2CC[C@@H]2C4=C(CC[C@]23C)C(C)(C)[C@@H]2CC[C@H]4O2)=CC1=O [GYPENSAPOGENIN B]	> 100	> 100	> 100
CC(C)=C1CC=C([C@H]2CC[C@]3(C)[C@@H]2CC[C@@H]2[C@@]4(C)CC[C@H](O)C(C)(C)[C@@H]4CC[C@]23C)C1=O [GYPENSAPOGENIN C]	0.58	> 100	0.11
CC(C)=C[C@H]1C=C([C@H]2CC[C@]3(C)[C@@H]2CC[C@@H]2[C@@]4(C)CC[C@H](O)C(C)(C)[C@@H]4CC[C@]23C)C(=O)O1 [GYPENSAPOGENIN D]	> 100	> 100	> 100
